Read-outs that look alike come from different tables or passages of the source.
Columns and labels:
BFU-E lineage = experiment: Bone marrow toxicity, BFU-E; type: cell-based, human; conditions: human, Cytotoxicity IC50, bone marrow BFU-E, three separate donors
[1] = HepG2 cytotoxicity, 3 day, glucose/galactose media; type: cell-based; conditions: human
CFU-GM lineage = experiment: Bone marrow toxicity, CFU-GM; type: cell-based, human; conditions: human, Cytotoxicity IC50, bone marrow CFU-GM, three separate donors
HepG2 cells = conditions: HepG2, 14 day; for mitochondrial toxicity: at 10 μM
[2] = tested on: burst forming unit-erythroid (BFU-E) lineage; experiment: Bone marrow toxicity, BFU-E; type: cell-based, human; conditions: positive control, at the concentration tested
[3] = tested on: colony-forming unit-granulocyte, macrophage (CFU-GM) lineage; experiment: Bone marrow toxicity, CFU-GM; type: cell-based, human; conditions: positive control, at the concentration tested
in vitro [4] = conditions: African green monkey
[5] = tested on: HCV GT1b/4a chimeric replicon; experiment: Chimeric replicon GT1b/4a in Huh-7 cells; type: cell-based; conditions: Hepatitis C virus, Huh-7, read-out: EC90 GT1b/4a
[6] = tested on: Salmonella typhimurium (TA98, TA100, TA1535, and TA1537) and Escherichia coli WP2 uvrA (pKM101); experiment: Mini Ames reverse mutation study; conditions: with and without S9 mix
[7] = tested on: HCV GT1b/3a chimeric replicon; experiment: Chimeric replicon GT1b/3a in Huh-7 cells; type: cell-based; conditions: Hepatitis C virus, Huh-7, read-out: EC90 GT1b/3a
[8] = HepG2 cytotoxicity, 14 day, glucose/galactose media; type: cell-based; conditions: human
[9] = target: T1, human ether-à-go-go-related gene (hERG) potassium channels (Homo sapiens, UniProt Q12809); experiment: hERG whole-cell patch clamp in CHO cells; type: cell-based
HCV GT1b-WT replicon = experiment: GT1b stably transfected replicon in Huh-7 cells; type: cell-based; conditions: Hepatitis C virus; for EC50: Huh-7, read-out: EC50 GT1b-WT; for EC90: Huh-7, read-out: EC90 GT1b-WT
[10] = Stability in simulated intestinal fluid; conditions: 37 °C
in vitro [11] = conditions: human, microsomes
[12] = Stability in simulated gastric fluid; type: physicochemical; conditions: 37 °C
[13] = tested on: HCV GT1b/5a chimeric replicon; experiment: Chimeric replicon GT1b/5a in Huh-7 cells; type: cell-based; conditions: Hepatitis C virus, Huh-7, read-out: EC90 GT1b/5a
HCV GT2a = experiment: GT2a infectious assay in Huh-7 cells; type: cell-based; conditions: Hepatitis C virus, Huh-7, read-out: EC90 GT2a
[14] = Stability in human intestinal microsomes
[15] = Cardiac toxicity in stem cell-induced ventricular cardiomyocytes; conditions: human
[16] = for Clint(liver): scaled from Clint(mic)
[17] = tested on: Salmonella typhimurium (TA98, TA100, TA1535, and TA1537) and Escherichia coli WP2 uvrA (pKM101); conditions: cited from earlier work
[18] = target: T1, human ether-à-go-go-related gene (hERG) potassium channels; conditions: cited from earlier work
[19] = In vitro nephrotoxicity in HK-2 cells, 3 day assay; conditions: human
DNA polymerase γ = target: T2, DNA polymerase γ (Homo sapiens, UniProt P54098); experiment: Human DNA polymerase γ inhibition; type: biochemical
T2 sequence (P54098 1-1239): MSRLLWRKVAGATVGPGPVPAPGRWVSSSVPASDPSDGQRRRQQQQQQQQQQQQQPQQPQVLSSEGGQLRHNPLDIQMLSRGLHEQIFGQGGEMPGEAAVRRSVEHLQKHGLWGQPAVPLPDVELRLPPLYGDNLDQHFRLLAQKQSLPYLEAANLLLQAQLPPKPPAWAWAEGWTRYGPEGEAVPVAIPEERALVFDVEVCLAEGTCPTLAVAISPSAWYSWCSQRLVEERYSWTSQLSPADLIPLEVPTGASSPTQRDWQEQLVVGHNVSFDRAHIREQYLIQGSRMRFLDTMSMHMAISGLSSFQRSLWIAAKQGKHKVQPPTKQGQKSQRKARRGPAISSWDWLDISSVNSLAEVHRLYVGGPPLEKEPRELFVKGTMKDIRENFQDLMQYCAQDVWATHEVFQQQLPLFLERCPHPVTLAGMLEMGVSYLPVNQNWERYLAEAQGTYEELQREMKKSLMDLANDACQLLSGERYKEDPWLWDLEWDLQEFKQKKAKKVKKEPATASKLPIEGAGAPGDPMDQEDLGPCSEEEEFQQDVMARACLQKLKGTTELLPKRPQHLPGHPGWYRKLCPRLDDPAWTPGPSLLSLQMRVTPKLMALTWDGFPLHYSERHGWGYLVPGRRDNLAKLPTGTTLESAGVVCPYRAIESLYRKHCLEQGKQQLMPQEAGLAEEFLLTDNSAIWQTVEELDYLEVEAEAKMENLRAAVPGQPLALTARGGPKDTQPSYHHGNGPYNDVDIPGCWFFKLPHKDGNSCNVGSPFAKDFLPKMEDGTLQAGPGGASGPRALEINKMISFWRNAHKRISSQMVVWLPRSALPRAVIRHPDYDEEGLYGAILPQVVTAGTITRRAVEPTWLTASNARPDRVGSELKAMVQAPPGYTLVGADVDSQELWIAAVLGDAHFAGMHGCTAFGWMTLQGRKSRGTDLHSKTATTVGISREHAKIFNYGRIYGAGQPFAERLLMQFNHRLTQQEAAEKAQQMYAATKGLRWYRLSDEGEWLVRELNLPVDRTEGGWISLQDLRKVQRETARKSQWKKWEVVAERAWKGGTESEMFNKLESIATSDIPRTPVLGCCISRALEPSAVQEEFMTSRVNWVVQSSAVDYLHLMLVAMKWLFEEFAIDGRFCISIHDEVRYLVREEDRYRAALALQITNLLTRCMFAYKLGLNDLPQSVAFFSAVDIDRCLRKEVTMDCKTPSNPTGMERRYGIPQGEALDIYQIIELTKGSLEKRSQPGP

DNA polymerase β = DNA polymerase β (Homo sapiens, UniProt P06746); experiment: Human DNA polymerase β inhibition; type: biochemical

T1 sequence (Q12809 whole entry): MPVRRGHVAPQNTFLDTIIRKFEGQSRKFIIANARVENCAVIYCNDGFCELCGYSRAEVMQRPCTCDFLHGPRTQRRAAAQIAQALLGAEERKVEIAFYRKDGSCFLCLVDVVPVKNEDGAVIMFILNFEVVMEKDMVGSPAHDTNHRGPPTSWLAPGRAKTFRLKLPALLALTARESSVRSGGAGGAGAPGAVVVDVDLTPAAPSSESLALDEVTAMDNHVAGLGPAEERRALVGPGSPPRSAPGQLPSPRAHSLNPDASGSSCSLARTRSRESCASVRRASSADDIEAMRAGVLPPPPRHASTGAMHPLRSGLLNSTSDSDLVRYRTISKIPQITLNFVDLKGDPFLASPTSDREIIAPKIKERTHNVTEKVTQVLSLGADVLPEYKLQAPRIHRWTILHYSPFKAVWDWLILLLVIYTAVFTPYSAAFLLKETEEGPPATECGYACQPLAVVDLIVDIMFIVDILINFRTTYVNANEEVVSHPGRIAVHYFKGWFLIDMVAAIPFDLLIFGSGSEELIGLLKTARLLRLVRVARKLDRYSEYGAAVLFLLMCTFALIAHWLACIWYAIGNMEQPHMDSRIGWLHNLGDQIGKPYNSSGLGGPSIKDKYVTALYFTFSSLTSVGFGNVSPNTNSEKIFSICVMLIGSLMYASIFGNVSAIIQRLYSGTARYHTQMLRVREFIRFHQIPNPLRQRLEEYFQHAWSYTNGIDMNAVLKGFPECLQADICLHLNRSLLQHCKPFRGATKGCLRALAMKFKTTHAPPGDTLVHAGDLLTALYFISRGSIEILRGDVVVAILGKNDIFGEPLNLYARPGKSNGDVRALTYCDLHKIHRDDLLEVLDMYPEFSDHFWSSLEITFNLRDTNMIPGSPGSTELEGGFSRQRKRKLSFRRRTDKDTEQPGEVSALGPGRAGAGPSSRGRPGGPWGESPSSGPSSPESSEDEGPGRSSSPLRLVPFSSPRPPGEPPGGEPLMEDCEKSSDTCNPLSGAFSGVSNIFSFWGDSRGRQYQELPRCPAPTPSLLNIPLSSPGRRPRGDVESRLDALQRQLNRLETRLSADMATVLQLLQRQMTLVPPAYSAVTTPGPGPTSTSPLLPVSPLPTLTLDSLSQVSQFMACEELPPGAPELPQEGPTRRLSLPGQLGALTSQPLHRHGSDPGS

In the case of `CC(C)OC(=O)[C@H](C)NP(=O)(OC[C@H]1O[C@@H](n2ccc(=O)[nH]c2=O)[C@](F)(Br)[C@H]1O)Oc1ccccc1` (mixture of isomers) [Compound 14], the IC50 (BFU-E lineage) is reported as > 100000 nM, the IC50 at 3 days [1] is reported as > 100000 nM and the IC50 (CFU-GM lineage) is reported as > 100000 nM. The “MtDNA content % of control (range)” value (HepG2 cells; 50 μM) was 100 (99–104) % of control and the “measurable mitochondrial toxicity (none up to)” value (HepG2 cells) was > 50 µM.
In the case of `Cc1cn([C@H]2C[C@H](N=[N+]=[N-])[C@@H](CO)O2)c(=O)[nH]c1=O` [AZT, reference compound], the “toxicity in erythroid progenitors” value [2] is reported as “high toxicity” and the “toxicity in myelomonocytic progenitors” value [3] is reported as “high toxicity”.
With `O=c1ccn([C@@H]2O[C@H](CO)[C@@H](O)[C@]2(F)Br)c(=O)[nH]1` [Compound 12, 1-((2R, 3S, 4R, 5R)-3-Bromo-3-fluoro-4-hydroxy-5-(hydroxymethyl)tetrahydrofuran-2-yl)pyrimidine-2,4(1H,3H)-dione] the CC50 (in vitro [4]) was > 100000 nM, the IC50 (CFU-GM lineage) was > 100000 nM and the “MtDNA content % of control (range)” value (HepG2 cells; 50 μM) was 72 (63–83) % of control. The “lactic acid production (% of control)” value (HepG2 cells; 50 μM) was 69 ± 14 % of control and the “measurable mitochondrial toxicity (none up to)” value (HepG2 cells) was > 50 µM.
For `CC(C)OC(=O)[C@H](C)N[P@@](=O)(OC[C@H]1O[C@@H](n2ccc(=O)[nH]c2=O)[C@@](F)(Br)[C@@H]1O)Oc1ccccc1` [Compound 27, Isopropyl ((R)-(((2R,3R,4S,5R)-4-Bromo-5-(2,4-dioxo-3,4-dihydro-pyrimidin-1(2H)-yl)-4-fluoro-3-hydroxytetrahydrofuran-2-yl)-methoxy)(phenoxy)phosphoryl)-L-alaninate], the EC90 [5] was 870 ± 230 nM, the “mutagenicity (mini Ames)” value [6] was “negative for mutagenicity” and the CC50 (in vitro [4]) was > 100000 nM. The EC90 [7] was 1600 ± 20 nM, the IC50 at 14 days [8] was > 100000 nM and the IC50 [9] was > 30000 nM. For the same compound, the EC50 (HCV GT1b-WT replicon) was 92 nM, the IC50 (BFU-E lineage) was > 100000 nM and the “stability in simulated intestinal fluid (24 h)” value [10] was “stable”. The half-life (in vitro [11]) was 18.4 min, the microsomal CLint (in vitro [11]) was 75.3 µL/min/mg and the “simulated gastric fluid (24 h), loss” value [12] was ~2% loss. For the same compound, the EC90 [13] was 800 ± 1500 nM, the IC50 at 3 days [1] was > 100000 nM and the IC50 (CFU-GM lineage) was > 100000 nM. For the same compound, the “MtDNA content % of control (range)” value (HepG2 cells; 50 μM) was 65 (65–65) % of control, the “lactic acid production (% of control)” value (HepG2 cells; 50 μM) was 100 ± 6.2 % of control and the EC90 (HCV GT2a) was 830 ± 10 nM. The half-life [14] was 132 min, the IC50 [15] was > 100000 nM and the “Clint(liver)” value [16] was 67.8 mL/min/kg.
With `CC(C)OC(=O)[C@H](C)N[P@](=O)(OC[C@H]1O[C@@H](n2ccc(=O)[nH]c2=O)[C@@](F)(Br)[C@@H]1O)Oc1ccccc1` [Compound 28, Isopropyl ((S)-(((2R,3R,4S,5R)-4-Bromo-5-(2,4-dioxo-3,4-dihydro-pyrimidin-1(2H)-yl)-4-fluoro-3-hydroxytetrahydrofuran-2-yl)-methoxy)(phenoxy)phosphoryl)-L-alaninate] the EC90 [5] was 130 ± 3 nM, the “mutagenicity (mini Ames)” value [6] was “negative for mutagenicity” and the CC50 (in vitro [4]) was > 100000 nM. For the same compound, the IC50 at 14 days [8] was > 100000 nM, the IC50 [9] was > 30000 nM and the EC90 (HCV GT1b-WT replicon) was 74 ± 2 nM. For the same compound, the “stability in simulated intestinal fluid (24 h)” value [10] was “stable”, the half-life (in vitro [11]) was 19.7 min and the microsomal CLint (in vitro [11]) was 70.2 µL/min/mg. For the same compound, the “simulated gastric fluid (24 h), loss” value [12] was ~2% loss, the EC90 [13] was 83 ± 20 nM and the IC50 at 3 days [1] was > 100000 nM. The “MtDNA content % of control (range)” value (HepG2 cells; 12.5 μM) was 86 (79–93) % of control, the “MtDNA content % of control (range)” value (HepG2 cells; 25 μM) was 110 (110–110) % of control and the “MtDNA content % of control (range)” value (HepG2 cells; 50 μM) was 150 (150–150) % of control. The mitochondrial toxicity (HepG2 cells) was “no mitochondrial toxicity”, the EC90 (HCV GT2a) was 77 nM and the half-life [14] was > 145 min. For the same compound, the IC50 [15] was > 100000 nM, the “remaining after 60 min” value ([16]; human liver microsomes) was 3% and the “Clint(liver)” value [16] was 63.2 mL/min/kg.
Compound `CC(C)OC(=O)[C@H](C)N[P@](=O)(OC[C@H]1O[C@@H](n2ccc(=O)[nH]c2=O)[C@](C)(F)[C@@H]1O)Oc1ccccc1` [SOF, sofosbuvir, reference compound] has an EC90 [7] of 370 ± 10 nM, an EC50 (HCV GT1b-WT replicon) of 34 nM and an EC90 (HCV GT1b-WT replicon) of 150 ± 30 nM. The mutagenicity [17] was “negative for mutagenicity”, the hERG channel inhibition [18] was “free from hERG channel inhibition” and the “MtDNA content % of control (range)” value (HepG2 cells; 12.5 μM) was 96 (90–100) % of control. For the same compound, the “MtDNA content % of control (range)” value (HepG2 cells; 50 μM) was 130 (120–150) % of control, the IC50 [15] was > 100000 nM and the IC50 at 3 days [19] was > 300000 nM.
With `Nc1ccn([C@H]2CC[C@@H](CO)O2)c(=O)n1` [ddC, β-D-2′,3′-dideoxycytidine, reference compound] the “MtDNA content % of control (range)” value (HepG2 cells; 10 μM) was 7.3 % of control and the mitochondrial toxicity (HepG2 cells) was “highly toxic”.
In the case of `Cc1cn([C@H]2CC[C@@H](COP(=O)(O)OP(=O)(O)OP(=O)(O)O)O2)c(=O)[nH]c1=O` [ddTTP], the IC50 (DNA polymerase γ) is reported as 100 ± 70 nM and the IC50 (DNA polymerase β) is reported as 8400 ± 110 nM.
`O=C(O)Cc1ccccc1Nc1c(Cl)cccc1Cl` [diclofenac, reference compound] showed a microsomal CLint (in vitro [11]) of 129 µL/min/mg.

From paper PMC7722249 (Journal of medicinal chemistry, 2019)
